Reference: patent publication US20170073337A1, “DIHYDROTHIAZINE AND DIHYDROOXAZINE DERIVATIVES HAVING BACE1 INHIBITORY ACTIVITY” (Shionogi & Co., Ltd., priority 2014, published 2017)
≈ marks a conversion by molar mass, not a printed value. Like-named read-outs stand apart in the source and are kept apart here.

How the values were obtained:
[1] = molecular target: T1, P-gp (MDR1 expressing LLC-PK1 cells) (Homo sapiens, UniProt P08183); experiment: P-gp substrate test; format: in vitro ADME; conditions: net flux = Efflux Ratio in MDR1 expressing cells / Efflux Ratio in parent LLC-PK1 cells
T1 construct: host or cells: LLC-PK1
T1 sequence (P08183 whole entry): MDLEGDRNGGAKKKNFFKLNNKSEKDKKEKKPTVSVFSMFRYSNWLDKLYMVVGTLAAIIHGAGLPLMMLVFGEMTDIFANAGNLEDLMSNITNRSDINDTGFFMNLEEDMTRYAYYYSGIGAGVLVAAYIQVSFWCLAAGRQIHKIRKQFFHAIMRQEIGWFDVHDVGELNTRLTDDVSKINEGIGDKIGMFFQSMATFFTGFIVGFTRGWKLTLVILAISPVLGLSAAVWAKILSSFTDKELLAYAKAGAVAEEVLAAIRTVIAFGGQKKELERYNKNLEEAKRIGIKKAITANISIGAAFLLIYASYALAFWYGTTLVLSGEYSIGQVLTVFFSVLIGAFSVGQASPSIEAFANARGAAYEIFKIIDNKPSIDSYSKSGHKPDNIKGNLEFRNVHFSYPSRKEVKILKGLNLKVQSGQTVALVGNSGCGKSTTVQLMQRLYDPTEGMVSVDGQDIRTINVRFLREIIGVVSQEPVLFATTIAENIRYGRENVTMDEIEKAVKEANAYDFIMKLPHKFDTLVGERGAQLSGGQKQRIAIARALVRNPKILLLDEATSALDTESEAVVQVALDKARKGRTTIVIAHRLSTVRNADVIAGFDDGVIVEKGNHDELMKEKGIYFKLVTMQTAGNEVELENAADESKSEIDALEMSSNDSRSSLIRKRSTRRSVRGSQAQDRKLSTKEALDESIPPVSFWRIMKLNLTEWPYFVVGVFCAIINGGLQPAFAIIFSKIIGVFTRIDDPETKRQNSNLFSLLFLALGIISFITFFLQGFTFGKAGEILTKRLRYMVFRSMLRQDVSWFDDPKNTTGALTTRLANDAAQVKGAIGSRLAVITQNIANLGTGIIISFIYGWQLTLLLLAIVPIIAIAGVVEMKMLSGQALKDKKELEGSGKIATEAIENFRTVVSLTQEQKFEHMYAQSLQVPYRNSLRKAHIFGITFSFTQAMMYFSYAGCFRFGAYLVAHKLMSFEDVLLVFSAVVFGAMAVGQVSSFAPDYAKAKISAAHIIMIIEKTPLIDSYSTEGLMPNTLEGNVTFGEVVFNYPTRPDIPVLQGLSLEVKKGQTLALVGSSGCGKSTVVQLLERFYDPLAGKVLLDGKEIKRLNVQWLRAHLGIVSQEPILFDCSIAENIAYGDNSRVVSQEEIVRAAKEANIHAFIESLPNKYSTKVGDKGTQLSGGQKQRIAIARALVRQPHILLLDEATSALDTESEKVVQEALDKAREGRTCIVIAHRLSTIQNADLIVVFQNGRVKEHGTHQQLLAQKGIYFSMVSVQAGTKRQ
Method: • 1. Cell line: • a. MDR/LLC-PK1 (Becton Dickinson) • b. LLC-PK1 (Becton Dickinson) • 2. Reference substrates: • a Digoxin (2 μM)
1. […] After incubation for designed time at 37° C., an aliquot (50 μL) of transport buffer in the donor and receiver side were collected. Assay was performed by duplicate or triplicate. 3. Reference substrate and the present invention in the aliquot was quantified by LC/MS/MS.
Pc(cm/sec)−Permeated amount (pmol)/area of cell membrane (cm2)/initial concentration (nM)/incubation time (sec)
The efflux ratio was calculated using the following equation:
Efflux Ratio=Basolateral-to-Apical Pe/Apical-to-Basolateral Pe
The net flux was calculated using the following equation
Net flux=Efflux Ratio in MDK1 expressing cells/Efflux Ratio in parent cells

Recombinant human BACE1 = molecular target: T2, Recombinant human BACE1 (Homo sapiens, UniProt P56817); experiment: Assay of BACE1 inhibitory activity: 384-well; format: biochemical; conditions: Assay format 384-well
T2 construct: purchased R&D Systems
T2 sequence (P56817 46-501): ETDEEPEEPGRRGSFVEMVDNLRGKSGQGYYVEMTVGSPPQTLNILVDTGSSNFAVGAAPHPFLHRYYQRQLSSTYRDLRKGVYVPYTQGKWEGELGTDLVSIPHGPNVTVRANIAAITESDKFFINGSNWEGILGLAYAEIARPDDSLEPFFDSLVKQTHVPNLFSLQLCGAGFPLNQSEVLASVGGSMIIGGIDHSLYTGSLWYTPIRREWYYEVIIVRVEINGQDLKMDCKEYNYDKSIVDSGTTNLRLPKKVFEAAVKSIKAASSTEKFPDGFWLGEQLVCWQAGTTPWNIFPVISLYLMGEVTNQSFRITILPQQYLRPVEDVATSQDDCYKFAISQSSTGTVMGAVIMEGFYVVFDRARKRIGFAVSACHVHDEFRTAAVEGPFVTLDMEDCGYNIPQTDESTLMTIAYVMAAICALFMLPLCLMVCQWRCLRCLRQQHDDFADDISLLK
Method: 5 μL of substrate peptide solution (Biotin-XSEVNLDAEFRHDSGC-Eu: X=ε-amino-n-capronic acid, Eu=Europium eryplate) was added to each well of 384-well plate (a black plate: Corning), and after addition of 0.1 μl of the compound of the present invention (DMSO solution) and 5 μl of Recombinant human BACE1 (R&D Systems), the reaction mixture was incubated at 25° C. for 2 hours. The substrate peptide was synthesized by reacting Cryptate TBPCOOH mono SMP (CIS bio international) with Biotin-XSEVNLDAEFRHDSGC (Peptide Institute, Inc.).
After the incubation for reaction, 10 μl of 8.0 μg/ml Streptavidin-XL665 (CIS bio International) dissolved in phosphate buffer (150 mmol/L K2HPO4-KH2PO4, pH 7.0, 0.008% Triton X-100, 0.8 mol/L KF) was added to each well and left stand at 25° C. for 30 minutes.

[2] = molecular target: T3, human ether-a-go-go related gene (hERG) channel (Homo sapiens, UniProt Q12809); experiment: hERG test; format: cell-based; conditions: % inhibition of IKr tail peak current at 3 uM; CHO cells expressing hERG
T3 construct: expressed in transfected cells; host or cells: CHO cells
T3 sequence (Q12809 whole entry): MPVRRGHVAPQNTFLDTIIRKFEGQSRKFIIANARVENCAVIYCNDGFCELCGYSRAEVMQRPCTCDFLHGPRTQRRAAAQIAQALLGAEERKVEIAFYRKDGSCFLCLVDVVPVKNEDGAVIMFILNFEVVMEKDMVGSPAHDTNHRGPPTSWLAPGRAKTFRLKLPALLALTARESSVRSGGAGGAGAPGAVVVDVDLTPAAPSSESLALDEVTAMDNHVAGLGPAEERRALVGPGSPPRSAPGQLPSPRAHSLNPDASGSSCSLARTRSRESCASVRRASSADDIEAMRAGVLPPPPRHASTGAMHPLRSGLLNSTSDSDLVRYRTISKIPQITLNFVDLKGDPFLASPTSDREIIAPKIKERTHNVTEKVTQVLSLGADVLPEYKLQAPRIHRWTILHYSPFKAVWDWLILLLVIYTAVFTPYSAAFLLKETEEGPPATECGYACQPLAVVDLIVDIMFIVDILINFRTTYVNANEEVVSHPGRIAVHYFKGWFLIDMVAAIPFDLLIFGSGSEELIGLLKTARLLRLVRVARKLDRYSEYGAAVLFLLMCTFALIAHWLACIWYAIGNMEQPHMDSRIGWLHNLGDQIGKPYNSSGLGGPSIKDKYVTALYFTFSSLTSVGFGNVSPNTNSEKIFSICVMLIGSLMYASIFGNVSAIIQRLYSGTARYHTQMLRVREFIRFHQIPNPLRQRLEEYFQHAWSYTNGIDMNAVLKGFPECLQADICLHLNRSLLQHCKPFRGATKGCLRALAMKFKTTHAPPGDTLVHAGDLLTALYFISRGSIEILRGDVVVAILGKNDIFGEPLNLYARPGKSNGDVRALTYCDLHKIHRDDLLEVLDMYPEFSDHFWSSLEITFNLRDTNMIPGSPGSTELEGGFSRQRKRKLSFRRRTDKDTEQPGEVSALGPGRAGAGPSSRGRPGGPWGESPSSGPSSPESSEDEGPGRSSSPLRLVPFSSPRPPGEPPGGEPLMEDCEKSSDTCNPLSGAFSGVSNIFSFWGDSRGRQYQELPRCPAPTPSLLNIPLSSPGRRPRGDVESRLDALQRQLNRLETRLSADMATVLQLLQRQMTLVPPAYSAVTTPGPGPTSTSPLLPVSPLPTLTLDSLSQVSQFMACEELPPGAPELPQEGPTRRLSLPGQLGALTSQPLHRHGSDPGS
From the text: For the purpose of assessing risk of an electrocardiogram QT interval prolongation, effects on delayed rectifier K+ current (IKr), which plays an important role in the ventricular repolarization process of the compound of the present invention, was studied using CHO cells expressing human ether-a-go-go related gene (hERG) channel.
A cell was retained at a membrane potential of […] by whole cell patch clamp method using an automated patch clamp system (QPatch:Sophion Bioscience A/S). After application of leak potential at −50 mV, IKr induced by depolarization pulse stimulation at +20 mV for 2 seconds and, further, repolarization pulse stimulation at −50 mV for 2 seconds was recorded.

Metabolic stability test = format: in vitro ADME; conditions: human liver microsomes, 37° C., 30 minutes, NADPH
Method: Using a commercially available pooled human liver microsomes, a compound of the present invention was reacted for a constant time, a remaining rate was calculated by comparing a reacted sample and an unreacted sample, thereby, a degree of metabolism in liver was assessed.
A reaction was performed (oxidative reaction) at 37° C. for 0 minute or 30 minutes in the presence of 1 mmol/L NADPH in 0.2 mL of a buffer (60 mmol/L Tris-HCl pH 7.4, 150 mmol/L potassium chloride, 10 mmol/L magnesium chloride) containing 0.5 mg protein/mL of human liver microsomes. After the reaction, 50 μL of the reaction solution was added to 100 μL of a methanol/acetonltrile=1/1 (v/v), mixed and centrifuged at 3000 rpm for 15 minutes. The compound of the present invention in the supernatant was quantified by LC/MS/MS or solid phase extraction (SPE)/MS, and a remaining amount of the compound of the present invention after the reaction area calculated, letting a compound amount at 0 minute reaction time to be 100%.

Solubility test = format: physicochemical; conditions: for solubility kinetic at 1 h: kinetic from dmso stock; for solubility kinetic at 16 h: solubility in JP 2nd fluid B, 1% DMSO, *2: shaken for 1 hour at room temperature
Method: A 10 mmol/L solution of the compound was prepared with DMSO, and 2 μL of the compound of the present invention solution was added, respectively, to 198 μL of JP 1st fluid (water was added to 2.0 g of sodium chloride and 7.0 ml, of hydrochloric acid to reach 1000 mL) and JP 2nd fluid (See Table 4). The mixture was left standing for 16 hours at 25° C. or shaken for 1 hour at ruom temperature, and the mixture was vacuum-filtered. The […] was ten or one hundred-fold diluted with metbanol/water=1/1 (v/v) or MeCN/MeOH/H2O(=1/1/2), and the compound concent ration in the filtrate was measured with LC/MS or solid phase extraction (SPE)/MS by the absolute calibration method.

[3] = tested on: Aβ production in neuroblastoma SH-SY5Y cells (SH/APPwt); experiment: β-amyloid (Aβ) production inhibitory effect in cell: 384-well; format: cell-based; conditions: Homo sapiens, Assay format 384-well
Method: Neuroblastoma SH-SY5Y cells (SH/APPwt) with human wild-type β-APT excessively expressed therein were prepared at 4×10^5 cells/mL, and 50 μl portions thereof were inoculated into each well of a 384-well culture plate (Corning) added 0.5 μl of the test compound of the present invention (DMSO solution). The final DMSO concentration was 1%, and the amount of the cell culture was 50 μl. After the incubation was performed for 21 hours from the cell seeding, 5 μl of the culture supernatant was collected from each fraction. The amount of the Aβ in each fraction was measured.
The Aβ amount was measured as follows. 5 μl of a homogeneous time resolved fluoresrenee (HTRF) measurement reagent (Amyloid β1-40 peptide; CIS bio international) and 5 μl of the culture supernatant were put into a 384′well plate (a black plate: Corning) and mixed with each other, and then left standing overnight at 4° C. while the light was shielded. Then, the fluorescence intensity (620 nm and 665 nm) was measured with EnViston (Perkin Elmer life sciences).

CYP2C9 = molecular target: T4, CYP2C9 (Homo sapiens, UniProt P11712); experiment: CYP inhibition test (CYP2C9); format: in vitro ADME; conditions: pooled human liver microsomes; tolbutamide methyl-hydroxylation
T4 construct: The commercially available pooled human liver microsomes are used as an enzyme resource; from tissue; host or cells: pooled human liver microsomes
T4 sequence (P11712 whole entry): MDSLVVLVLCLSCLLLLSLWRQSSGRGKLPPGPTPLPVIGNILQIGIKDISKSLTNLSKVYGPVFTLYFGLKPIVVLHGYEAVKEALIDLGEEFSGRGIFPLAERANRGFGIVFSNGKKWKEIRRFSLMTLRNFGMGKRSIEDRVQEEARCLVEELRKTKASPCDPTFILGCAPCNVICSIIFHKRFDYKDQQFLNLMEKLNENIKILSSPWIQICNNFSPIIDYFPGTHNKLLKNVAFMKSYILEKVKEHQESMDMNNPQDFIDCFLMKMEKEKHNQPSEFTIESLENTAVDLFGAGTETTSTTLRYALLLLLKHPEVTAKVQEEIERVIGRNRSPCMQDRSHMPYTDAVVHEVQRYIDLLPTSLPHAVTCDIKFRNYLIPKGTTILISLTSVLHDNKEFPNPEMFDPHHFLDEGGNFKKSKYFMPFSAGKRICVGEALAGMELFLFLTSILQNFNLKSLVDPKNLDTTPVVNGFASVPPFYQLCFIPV
From the text: (§1) The CYP inhibition test is a test to assess the inhibitory effect of a compound of the present invention towards typical substrate metabolism reactions on CYP enzymes in human liver microsomes. The marker reactions on human main five CYP enzymes (CYP1A2, 2C9, 2C19, 2D6, and 3A4) are used as follows: 7-ethoxyresorufin O-deethylation (CYP1A2), tolbutamide methyl-hydroxylation (CYP2C9), mephenytoin 4′-hydroxylation (CYP2C19), dextromethorphan O-demethylation (CYP2D6), and terfenadine hydroxylation (CYP3A4). The commercially available pooled human liver microsomes are used as an enzyme resource.
(§2) The reaction conditions were as follows: substrate, 0.5 μmol/L ethoxyresorufin (CYP1A2), 100 μmol/L tolbutamide (CYP2C9), 50 μmol/L, S-mephenytoin (CYP2C19), 5 μmol/L dextromethorphan (CYP2D6), 1 μmol/L terfenadine (CYP3A4): reaction time, 15 minutes: reaction temperature, 37° C.; enzyme, pooled human liver microsomes 0.2 mg protein/mL; concentrations of the compound of the present invention, 1, 5, 10, 20 μmol/L (four points).
(§3) Five kinds of substrates, human liver microsomes, and a compound solution of the present invention in […] Hepes buffer were added to a 96-well plate at the composition as described above as a reaction solution. NADPH as a cofactor was added to this 96-well plate in order to initiate metabolism reactions. After the incubation at 37° C.for […], a methanol/acetonitrile=1/1 (v/v) solution was added to stop the reaction. After the centrifugation at 3000 rpm for 15 minutes, resorufin (CYP1A2 metabolite) in the supernatant was quantified by a fluorescent plate reader, and hydroxytolbutamide (CYP2C9 metabolite), 4′-hydroxymephenytoin (CYP2C19 metabolite), dextrorphan (CYP2D6 metabolite), and terfenadine alcohol metabolite (CYP3A4 metabolite) in the supernatant were quantified by LC/MS/MS.
(§4) The sample adding DMSO to a reaction system instead of compound of the present invention solution was adopted as a control (100%) because DMSO was used as a solvent to dissolve a compound of the present invention. Remaining activity (%) was calculated at each concentration of a compound of the present invention, and IC50 value was calculated by reverse presumption by a logistic model using a concentration and an inhibition rate.

CYP3A4 = molecular target: T5, CYP3A4 (Homo sapiens, UniProt P08684); experiment: CYP inhibition test (CYP3A4); format: in vitro ADME; conditions: pooled human liver microsomes; terfenadine hydroxylation
T5 construct: The commercially available pooled human liver microsomes are used as an enzyme resource; from tissue; host or cells: pooled human liver microsomes
T5 sequence (P08684 whole entry): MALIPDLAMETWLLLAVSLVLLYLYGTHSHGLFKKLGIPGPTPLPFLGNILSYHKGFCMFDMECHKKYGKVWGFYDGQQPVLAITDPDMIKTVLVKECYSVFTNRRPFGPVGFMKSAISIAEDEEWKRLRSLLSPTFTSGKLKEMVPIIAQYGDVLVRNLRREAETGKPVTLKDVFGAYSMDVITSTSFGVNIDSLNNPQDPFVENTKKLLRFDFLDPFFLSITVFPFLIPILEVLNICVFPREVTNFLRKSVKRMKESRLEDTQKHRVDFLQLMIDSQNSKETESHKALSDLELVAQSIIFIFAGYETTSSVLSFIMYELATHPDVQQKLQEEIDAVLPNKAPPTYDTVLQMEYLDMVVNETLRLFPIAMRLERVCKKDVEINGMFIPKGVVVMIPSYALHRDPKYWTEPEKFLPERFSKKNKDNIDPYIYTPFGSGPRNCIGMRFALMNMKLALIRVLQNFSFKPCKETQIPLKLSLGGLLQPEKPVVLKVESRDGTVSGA
From the text: as §1, §2, §3, §4

CYP1A2 = molecular target: T6, CYP1A2 (Homo sapiens, UniProt P05177); experiment: CYP inhibition test (CYP1A2); format: in vitro ADME; conditions: pooled human liver microsomes; 7-ethoxyresorufin O-deethylation
T6 construct: The commercially available pooled human liver microsomes are used as an enzyme resource; from tissue; host or cells: pooled human liver microsomes
T6 sequence (P05177 1-516): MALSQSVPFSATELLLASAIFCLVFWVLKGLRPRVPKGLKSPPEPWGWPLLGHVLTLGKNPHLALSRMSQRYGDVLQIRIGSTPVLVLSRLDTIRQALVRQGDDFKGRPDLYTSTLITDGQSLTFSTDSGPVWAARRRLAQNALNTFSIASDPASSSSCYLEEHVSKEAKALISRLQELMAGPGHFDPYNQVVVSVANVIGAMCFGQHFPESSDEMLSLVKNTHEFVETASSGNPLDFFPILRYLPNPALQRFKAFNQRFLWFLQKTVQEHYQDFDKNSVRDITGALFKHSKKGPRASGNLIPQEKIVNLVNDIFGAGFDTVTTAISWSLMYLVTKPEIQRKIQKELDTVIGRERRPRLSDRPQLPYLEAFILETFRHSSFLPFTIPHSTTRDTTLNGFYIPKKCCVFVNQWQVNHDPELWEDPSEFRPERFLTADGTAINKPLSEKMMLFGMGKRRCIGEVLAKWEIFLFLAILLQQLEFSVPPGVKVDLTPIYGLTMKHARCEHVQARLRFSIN
From the text: as §1, §2, §3, §4

CYP2C19 = molecular target: T7, CYP2C19 (Homo sapiens, UniProt P33261); experiment: CYP inhibition test (CYP2C19); format: in vitro ADME; conditions: pooled human liver microsomes; mephenytoin 4′-hydroxylation
T7 construct: The commercially available pooled human liver microsomes are used as an enzyme resource; from tissue; host or cells: pooled human liver microsomes
T7 sequence (P33261 whole entry): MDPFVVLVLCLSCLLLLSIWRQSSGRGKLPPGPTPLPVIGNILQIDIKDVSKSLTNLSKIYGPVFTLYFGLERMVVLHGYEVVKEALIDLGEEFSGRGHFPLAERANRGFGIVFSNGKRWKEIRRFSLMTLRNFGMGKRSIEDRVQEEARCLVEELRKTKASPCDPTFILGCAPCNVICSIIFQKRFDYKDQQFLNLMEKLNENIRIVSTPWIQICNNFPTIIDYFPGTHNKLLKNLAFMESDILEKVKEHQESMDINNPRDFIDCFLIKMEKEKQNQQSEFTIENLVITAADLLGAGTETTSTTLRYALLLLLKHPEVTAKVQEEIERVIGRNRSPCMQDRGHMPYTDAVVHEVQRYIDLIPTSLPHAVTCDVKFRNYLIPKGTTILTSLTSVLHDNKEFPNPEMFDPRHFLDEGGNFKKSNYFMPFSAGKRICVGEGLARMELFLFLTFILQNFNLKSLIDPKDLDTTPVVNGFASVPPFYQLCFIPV
From the text: as §1, §2, §3, §4

CYP2D6 = molecular target: T8, CYP2D6 (Homo sapiens, UniProt P10635); experiment: CYP inhibition test (CYP2D6); format: in vitro ADME; conditions: pooled human liver microsomes; dextromethorphan O-demethylation
T8 construct: The commercially available pooled human liver microsomes are used as an enzyme resource; from tissue; host or cells: pooled human liver microsomes
T8 sequence (P10635 whole entry): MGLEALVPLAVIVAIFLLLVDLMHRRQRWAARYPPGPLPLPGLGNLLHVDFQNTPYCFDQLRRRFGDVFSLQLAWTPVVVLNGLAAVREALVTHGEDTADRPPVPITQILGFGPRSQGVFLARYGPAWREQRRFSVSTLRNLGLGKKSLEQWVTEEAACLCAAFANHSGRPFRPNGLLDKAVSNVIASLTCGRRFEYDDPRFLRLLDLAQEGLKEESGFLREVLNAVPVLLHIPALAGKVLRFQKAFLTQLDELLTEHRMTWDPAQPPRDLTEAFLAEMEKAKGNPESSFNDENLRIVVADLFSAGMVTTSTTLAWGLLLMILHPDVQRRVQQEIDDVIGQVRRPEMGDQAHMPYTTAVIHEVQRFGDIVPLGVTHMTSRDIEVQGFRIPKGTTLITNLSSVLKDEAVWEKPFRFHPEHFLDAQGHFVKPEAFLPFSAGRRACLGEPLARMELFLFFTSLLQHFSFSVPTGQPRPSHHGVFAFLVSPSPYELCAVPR
From the text: as §1, §2, §3, §4

[4] = JP 1st fluid, pH 1.2, simulated gastric fluid, read-out: JP1

Row | ER ratio (Cell: MDR1/LLC-PK1) [1] | IC50 (Recombinant human BACE1) [nM] | remaining % (Metabolic stability test) [%] | solubility kinetic at 1 h (Solubility test; [4]) [µM] | solubility kinetic at 1 h (Solubility test; JP 2nd fluid B, pH 6.8, aqueous buffer, read-out: JP2_μM) [µM] | IC50 [3] [nM] | IC50 (CYP2C9) [µM] | IC50 (CYP3A4) [µM] | IC50 (CYP1A2) [µM] | IC50 (CYP2C19) [µM] | solubility kinetic at 16 h (Solubility test; read-out: JP2_μM) [µM] | IC50 (CYP2D6) [µM] | SMILES | hERG_3 uM_% [2] [%]
1 |  | 41.5 | 80.5 | > 50 |  | 5.1 | ≥ 10 | ≥ 20 | ≥ 20 | ≥ 20 | >50.0 | ≥ 20 | [2H]C([2H])([2H])Oc1cnc(C(=O)Nc2cccc([C@@]3(C)N=C(N)S[C@H](C)[C@@H]3F)c2)cn1 [Compound I-114] | 
2 |  | 34.3 | 78.9 | > 50 |  | 7.2 | ≥ 20 | ≥ 20 | ≥ 10 | ≥ 20 | >50.0 | ≥ 20 | C[C@H]1SC(N)=N[C@](C)(c2cccc(NC(=O)c3ccc(F)cn3)c2)[C@H]1F [Compound I-115] | 

Continued, molecule first:

Row | SMILES | ER ratio (Cell: MDR1/LLC-PK1) [1] | IC50 (Recombinant human BACE1) [nM] | remaining % (Metabolic stability test) [%] | solubility kinetic at 1 h (Solubility test; [4]) [µM] | solubility kinetic at 1 h (Solubility test; JP 2nd fluid B, pH 6.8, aqueous buffer, read-out: JP2_μM) [µM] | IC50 [3] [nM] | IC50 (CYP2C9) [µM] | IC50 (CYP3A4) [µM] | IC50 (CYP1A2) [µM] | IC50 (CYP2C19) [µM] | solubility kinetic at 16 h (Solubility test; read-out: JP2_μM) [µM] | IC50 (CYP2D6) [µM] | hERG_3 uM_% [2] [%]
3 | C[C@H]1SC(N)=N[C@](C)(c2cc(NC(=O)c3ccc(OCC(F)(F)F)cn3)ccc2F)[C@H]1F [Compound I-54] | 1.9 | 13 | 91 | > 50 | 38.6 (≈ 18.3 µg/mL) | 7.2 |  |  |  |  |  |  | 37.7
4 | COc1ccc(C(=O)Nc2ccc(F)c([C@@]3(C)N=C(N)SCC34CC(F)(F)C4)c2)nc1 [Compound I-57] | 0.6 | 16.1 |  | > 50 |  | 0.68 | ≥ 20 | ≥ 10 | ≥ 20 | ≥ 20 | >50 |  | 
5 | Cc1cc(C#N)cnc1C(=O)Nc1ccc(F)c([C@@]2(C)N=C(N)SCC23CC(F)(F)C3)c1 [Compound I-60] | 1.4 | 6.62 |  | > 50 |  | 0.29 | ≥ 20 |  | ≥ 20 | ≥ 20 | >50 |  | 
6 | COCC(F)(F)[C@H]1OC(N)=N[C@](C)(c2cc(NC(=O)c3ccc(C#N)cn3)ccc2F)[C@H]1F [Compound I-78] |  | 7.35 |  | > 50 |  | 6.7 | ≥ 20 | ≥ 10 | ≥ 20 | ≥ 20 | >50 | ≥ 10 | 39.6
